From patent US20110146678A1, “PROCESS FOR IMPROVING CRYSTALLINITY” (priority 2008, published 2011)

Columns and labels:
Format in all cases: physicochemical
[1] = Aerosolisation efficiency of combination DPI formulations FP/micronized SX 500/50, NGI via Rotahaler and Cyclohaler, incl. 1 month storage; details: for % FPF under stressed storage conditions: 1 month at 25° C./75% RH; for FPF of FP compared with micronized sample: T=0, Cyclohaler; for FPF of FP compared with micronized sample / FPF of FP compared with other samples: 500/50 blend with micronized SX; for FPF of FP compared with other samples: T=0, Rotahaler
Description: The aerosolisation efficiency of samples 2, 3 and 4 of fluticasone propionate (FP) produced as described in Example 2 was assessed in combination dry powder inhaler (DPI) formulations containing micronized salmeterol xinafoate (SX) using a Rotahaler® unit dose DPI device (GSK, Ware, UK) and Cyclohaler® unit dose DPI device (TEVA Pharmaceuticals, Netherlands).
The aerosolization efficiency was evaluated in combination DPI formulations also containing micronized SX. Each combination formulation contained 0.16000 g FP (sample 2, 3 or 4), 0.02320 g SX and 3.8168 g lactose (ML001, DMV-Fonterra, Vehgel, Netherlands) and was prepared by geometric mixing. Following this, each blend was subsequently prepared using a Turbula T2F (Willy A Bachofen A G, Basel, Switzerland) at 46 rpm for 45 minutes. The blend strength of each combination formulation equated to 500 μg FP and 50 μg Salmeterol base. This matches the dose strength of Advair 500/50. A sample of Advair 500/50 was used as the micronized example. The aerolisation efficiency of four different formulations containing FP samples 2, 3, 4 or micronized FP was measured.
Following content uniformity testing, 12.5±0.5 mg of each blend was loaded into size 3 hydroxypropylmethyl cellulose capsules (HPMC, Shionogi Qualicaps S A, Basingstoke, UK). The capsules were stored at 44% RH for 24 h prior to in vitro performance testing.
(§1) Testing was performed using a Next Generation Impactor (NGI) with pre-separator, which was connected to a vacuum pump (GE Motors). Prior to testing, the pre-separator was filled with 15 ml of mobile phase and the cups of the NGI cups were coated with 1% v/v silicone oil in hexane to eliminate particle bounce.
For each experiment, two individual capsules of the same formulation were discharged into the NGI at 60 Lpm for 4 s via a Rotahaler (GSK, Ware, UK) and 90 Lpm for 2.8 s via a Cyclohaler (TEVA Pharmaceuticals, Netherlands) to ensure both devices were operated such that 4 kPa pressure drop was generated.
Additionally, blisters from a commercially available Advair 500/50 Diskus (GSK, USA) were emptied and 12.5 mg of formulation was transferred into size 3 HPMC capsules and discharged into a NGI at 60 Lpm for 4 s via a Rotahaler and at 90 Lpm for 2.8 s via a Cyclohaler.
Following aerosolization, the NGI apparatus was dismantled and the inhaler, capsules and each part of the NGI was washed down into known volumes of HPLC mobile phase. The mass of drug deposited on each part of the NGI was determined by HPLC. This protocol was repeated three times for each blend, following which, the fine particle dose (FPD) and fine particle fraction of the loaded dose (FPFLD) were determined. The FPD represented the mass of drug that was collected on stages 3-8 of the NGI.

[2] = Particle size by Sympatec HELOS laser diffraction / optical microscopy; details: for D(10) / D(50) / D(90): Sympatec HELOS laser diffraction
Excerpt: The particle size can be measured by laser diffraction techniques: Light from a laser is shone into a cloud of particles, which are suspended in a transparent gas such as air. The particles scatter the light; smaller particles scattering the light at larger angles than bigger particles. The scattered light can be measured by a series of photodetectors placed at different angles. This is known as the diffraction pattern for the sample. The diffraction pattern can be used to measure the size of the particles using well documented light scattering theory. The particles are assumed to be spherical but few particles are actually spherical. The particle diameters are calculated from the measured volume of the particle, but assume a sphere of equivalent volume.
Budesonide (5 g) was dissolved in 100 mL of dichloromethane. The samples of budesonide powder collected in the ultrasonic chamber were produced using a Büchi-290 laboratory-scale spray dryer […], Büchi, Switzerland). The solution was atomized using nitrogen at 7 bar flowing at approximately at 10 Lpm (Litre/minute). The aspirator was set at 100% and flow rate of solution was set to […]. The gas temperature was set to 120° C. Budesonide particles were collected the ultrasonic chamber connected to the end of high performance cyclone separator. In order to apply ultrasound to the spray dried particles, the collection ultrasonic chamber was filled with heptane thermoregulated at 25° C. and was fitted with an ultrasonic probe resonating at 20 kHz. Ultrasound at 20 W power was applied between 30 minutes and 1 hour. The resulting particle slurry was spray dried and particles characterized by optical microscopy and DSC (Differential Scanning calorimetry). The size of the particles were typically in the range of 1-7 μm.
The D(10), D(50), D(90) for two representative samples were 1.21, 3.03, 4.63 μm and 1.05, 2.99, 3.76 μm respectively as determined by Sympatec HELOS laser diffraction. […]

[3] = Aerosolisation efficiency of binary DPI formulations (0.4% w/w FP in lactose), NGI via Rotahaler; details: binary DPI, Rotahaler 60 Lpm
Description: The aerosolization efficiency of samples 2, 3 and 4 of engineered FP were evaluated using binary formulations containing 0.4% w/w FP.
Each binary formulation contained 0.016 g FP and 3.984 g lactose (ML001, DMV-Fonterra, Vehgel, Netherlands) and was prepared by geometric mixing. Following this, the blend was subsequently prepared using a Turbula T2F (Willy A Bachofen A G, Basel, Switzerland) at 46 rpm for 45 minutes.
Following content uniformity testing, 12.5±1 mg of each blend was loaded into size 3 hydroxypropylmethyl cellulose capsules (HPMC, Shionogi Qualicaps S A, Basingstoke, UK). The capsules were stored at 44% RH for 24 h prior to in vitro performance testing.
as §1
For each experiment, four individual capsules of the same formulation were discharged into the NGI at 60 Lpm for 4 s via a Rotahaler (GSK, Ware, UK) DPI device. Additionally, blisters from a Flixotide Diskus (GSK, Ware, UK) were emptied and loaded into size 3 HPMS capsules and discharged into a NGI at 60 Lpm1 for 4 s via a Rotahaler. Following aerosolization, the NGI apparatus was dismantled and the inhaler, capsules and each part of the NGI was washed down into known volumes of HPLC mobile phase.
The mass of drug deposited on each part of the NGI was determined by HPLC. This protocol was repeated three times for each blend, following which, the mass median aerodynamic diameter (MMAD), geometric standard deviation (GSD), fine particle dose (FPD) and fine particle fraction of the emitted dose (FPFED) were determined. The FPD represented the mass of drug that was collected on stages 3-8 of the NGI.

[4] = Specific surface area by five-point BET nitrogen adsorption
Description: The surface roughness and surface area of micronized Fluticasone Propionate (FP), sample 3 of FP prepared by the current invention and sample 4 of FP, as described in Example 2, were determined using atomic force microscopy (AFM) and BET surface area analysis, respectively. The roughness of imaged areas was quantified using the mean (Ra) and root mean square (Rq) of the variations in the height of the imaged surface. Furthermore, the surface area of samples was determined by a five-point BET nitrogen adsorption analysis. The specific surface areas of the FP samples were measured using a Gemini 2360 surface area analyser (Micromeritics Instrument Corporation, Norcross, USA). A five-point BET nitrogen adsorption analysis was carried out after degassing the samples for 24 hours in a FlowPrep 060 degasser (Micromeritics Instrument Corporation, Norcross, USA).

| % FPF under stressed storage conditions [1] | FPF of FP compared with micronized sample [1] | D(10) [2] [μm] | D(50) [2] [μm] | D(90) [2] [μm] | size of the particles, typical range ([2]; after ultrasound treatment and spray drying of slurry) | Surface Area [4] [m^2/g] | SMILES | FPF of FP compared with other samples [1] | percentage fine particle fraction (% FPF) compared with micronized FP ([3]; listed as Samples 2) | percentage fine particle fraction (% FPF) compared with micronized FP [3] |
| --- | --- | --- | --- | --- | --- | --- | --- | --- | --- | --- |
| not significantly affected | greater than the micronized sample | 1.35 | 3.25 | 5.63 | 1-6 μm |  | CCC(=O)O[C@]1(C(=O)SCF)[C@H](C)C[C@H]2[C@@H]3C[C@H](F)C4=CC(=O)C=C[C@]4(C)[C@@]3(F)[C@@H](O)C[C@@]21C [Sample 2, Fluticasone propionate] | greater than sample 4 and the micronized sample | significantly greater than that of micronized FP |  |
| not significantly affected | greater than the micronized sample | 0.99 | 2.55 | 4.97 |  | 10.79 | CCC(=O)O[C@]1(C(=O)SCF)[C@H](C)C[C@H]2[C@@H]3C[C@H](F)C4=CC(=O)C=C[C@]4(C)[C@@]3(F)[C@@H](O)C[C@@]21C [Sample 3, Fluticasone propionate] | greater than sample 4 and the micronized sample |  | significantly greater than that of micronized FP |
| not significantly affected | greater than the micronized sample | 1.14 | 2.67 | 5.11 |  | 7.49 | CCC(=O)O[C@]1(C(=O)SCF)[C@H](C)C[C@H]2[C@@H]3C[C@H](F)C4=CC(=O)C=C[C@]4(C)[C@@]3(F)[C@@H](O)C[C@@]21C [Sample 4, fluticasone propionate, reference compound] | poor performance |  | significantly lower % FPF than micronized FP |
| not significantly affected |  |  |  |  |  | 6.55 | CCC(=O)O[C@]1(C(=O)SCF)[C@H](C)C[C@H]2[C@@H]3C[C@H](F)C4=CC(=O)C=C[C@]4(C)[C@@]3(F)[C@@H](O)C[C@@]21C [micronized FP, Fluticasone Propionate] |  |  |  |
